Reference: patent US20260070887A1 (Shenzhen Zhongge Biological Technology Co., Ltd., priority 2022, published 2026)
pIC50: −log10 of the molar value. Where two headings read alike, the source gives them in different places.

Columns and labels:
[1] = biological target: KIF18A (Homo sapiens (Human), UniProt Q8NI77); test: KIF18A ATPase activity under tubulin stimulation (ADP-Glo assay); format: biochemical; settings: KIF18A 30 nM, ATP 150 μM, pig microtubules
[2] = tested on: HT-29 cells; test: HT-29 cell proliferation (Cell Titer-Glo, 6 days); format: cell-based
How it was run: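 Cells seeded at 4,170 cells/mL in McCoy's 5a with 10% FBS, compound added from DMSO stock, grown 6 days at 37 °C, 5% CO2. Cell Titer-Glo luminescence; inhibition vs 0.3% DMSO control, IC50 by nonlinear regression.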

[3] = tested on: A2780 cells; test: A2780 cell anti-proliferation assay; format: cell-based; settings: 6 days, Cell Titer-Glo
Experimental: A2780 (ECACC) cells were cultured in RPMI-1640 complete medium (Gibco, A1049101) containing 10% fetal bovine serum (Gibco, 10099-141C), 100 U penicillin and 100 μg/mL streptomycin (Gibco, 15140-122). The Promega kit Cell Titer-Glo (Promega: G7572) was used in this method for test.
A2780 cells were cultured in T75 cell flasks (Corning, 430641) and the cells were placed in a 37° C., 5% CO2 incubator. Cells were passaged when reaching a cell density of 70%-80%, once every five days. To perform the experiment, the test compounds were dissolved in DMSO to prepare a 10 mM stock solution, and the test compounds were added to the 384-well cell test plate (Corning, 3765) at the predetermined concentration (19.5 nM-[…]) using ECHO. A2780 cells were digested and 4000 cells (60 μL medium) were seeded per well in the test plate. The 384-well plate was then centrifuged at 500 rpm for 1 minute, and then placed in a 37° C., 5% CO2 incubator for 6 days of cultivation. Six days later, the cell culture plate was equilibrated for 10 minutes at room temperature, 25 μL of Cell Titer-Glo was added to each well, and the mixture was shaken and mixed well and let stand for 5 minutes. The luminescence values for samples in various wells were read using a microplate reader in Luminescence mode.
The percentage of inhibition of A2780 cell proliferation by the test compound at each concentration was calculated by comparing with the values of the control group (0.2% DMSO). The IC50 values of the compounds were obtained by concentration-inhibition rate nonlinear regression analysis of the test compounds using GraphPad Prism 9.

Chain of KIF18A (Q8NI77 whole entry): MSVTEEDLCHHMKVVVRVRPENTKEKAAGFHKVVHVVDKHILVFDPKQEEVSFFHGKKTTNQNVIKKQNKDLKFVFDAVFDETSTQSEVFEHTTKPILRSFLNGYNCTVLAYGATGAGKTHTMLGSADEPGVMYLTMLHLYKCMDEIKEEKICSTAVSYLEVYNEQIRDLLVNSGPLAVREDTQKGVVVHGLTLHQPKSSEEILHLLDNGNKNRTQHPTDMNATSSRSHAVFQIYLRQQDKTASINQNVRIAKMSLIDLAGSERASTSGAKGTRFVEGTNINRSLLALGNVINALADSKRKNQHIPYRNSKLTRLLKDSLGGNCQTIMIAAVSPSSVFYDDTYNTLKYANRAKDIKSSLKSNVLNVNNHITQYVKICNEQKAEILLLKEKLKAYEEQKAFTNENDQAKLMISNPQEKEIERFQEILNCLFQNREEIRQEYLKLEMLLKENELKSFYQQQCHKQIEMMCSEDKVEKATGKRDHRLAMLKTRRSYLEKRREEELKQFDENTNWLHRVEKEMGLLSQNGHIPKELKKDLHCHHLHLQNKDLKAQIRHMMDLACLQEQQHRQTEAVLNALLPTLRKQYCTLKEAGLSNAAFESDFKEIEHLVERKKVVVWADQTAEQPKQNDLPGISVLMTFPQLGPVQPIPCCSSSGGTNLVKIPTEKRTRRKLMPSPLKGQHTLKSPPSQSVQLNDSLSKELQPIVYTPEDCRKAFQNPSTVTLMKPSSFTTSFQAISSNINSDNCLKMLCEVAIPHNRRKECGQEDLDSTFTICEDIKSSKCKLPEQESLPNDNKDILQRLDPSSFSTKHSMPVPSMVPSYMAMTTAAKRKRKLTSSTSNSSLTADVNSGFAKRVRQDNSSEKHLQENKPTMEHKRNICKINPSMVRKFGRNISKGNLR
Chain of KIF18A (P02550 whole entry partner): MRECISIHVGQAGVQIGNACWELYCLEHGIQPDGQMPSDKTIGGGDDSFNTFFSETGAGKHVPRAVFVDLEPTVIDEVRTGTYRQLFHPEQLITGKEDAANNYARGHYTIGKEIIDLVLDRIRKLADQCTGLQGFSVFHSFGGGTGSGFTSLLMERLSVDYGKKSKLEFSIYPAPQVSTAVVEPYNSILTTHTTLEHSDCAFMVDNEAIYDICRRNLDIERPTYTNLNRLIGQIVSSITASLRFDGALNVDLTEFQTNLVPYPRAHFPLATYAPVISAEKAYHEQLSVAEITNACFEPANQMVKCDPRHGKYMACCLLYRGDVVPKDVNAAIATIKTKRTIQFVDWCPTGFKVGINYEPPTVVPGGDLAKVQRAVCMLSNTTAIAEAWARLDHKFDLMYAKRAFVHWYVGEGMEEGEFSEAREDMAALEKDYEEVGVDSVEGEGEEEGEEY
Chain of KIF18A (P02554 whole entry partner): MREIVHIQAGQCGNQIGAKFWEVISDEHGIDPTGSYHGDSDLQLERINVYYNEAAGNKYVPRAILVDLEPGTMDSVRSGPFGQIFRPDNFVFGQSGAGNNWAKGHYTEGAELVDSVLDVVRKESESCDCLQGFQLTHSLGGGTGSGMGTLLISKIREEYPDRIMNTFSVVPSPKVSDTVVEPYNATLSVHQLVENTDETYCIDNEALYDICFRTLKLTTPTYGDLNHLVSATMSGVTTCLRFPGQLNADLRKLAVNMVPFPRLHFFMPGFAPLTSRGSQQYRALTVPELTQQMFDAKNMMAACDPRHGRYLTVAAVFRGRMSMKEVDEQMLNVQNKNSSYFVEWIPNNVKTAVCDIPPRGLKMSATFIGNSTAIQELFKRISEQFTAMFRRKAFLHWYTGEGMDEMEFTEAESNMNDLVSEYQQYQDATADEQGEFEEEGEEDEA

pIC50 [1]	pIC50 [2]	pIC50 [3]	Compound	pIC50 ([2]; Homo sapiens, HT-29, 144 h)	pIC50 ([3]; Homo sapiens, A2780, 144 h)
6.30 to 7.30			CC1(C)Cn2c(cc3c(NC(=O)c4ccc(NS(=O)(=O)CCO)cc4N4CCC(=C(F)F)CC4)cccc32)CO1 [Example 370, 2-(4-(difluoromethylene)piperidin-1-yl)-N-(3,3-dimethyl-3,4-dihydro-1H-[1,4]oxazino[4,3-a]indol-9-yl)-4-((2-hydroxyethyl)sulfonamido)benzamide]	6.00 to 6.70	< 5.00
≥ 7.30	≥ 6.70	< 5.00	CC1(O)CCCn2c1cc1c(NC(=O)c3ccc(NS(=O)(=O)CCO)cc3N3CCC4(CC3)CC4)cccc12 (stereo not drawn) [Example 372]		
≥ 7.30			O=C(Nc1cccc2c1cc1n2CCC(F)(F)C1)c1ccc(NS(=O)(=O)CCO)cc1N1CCC(=C(F)F)CC1 [Example 374, N-(8,8-difluoro-6,7,8,9-tetrahydropyridino[1,2-a]indol-1-yl)-2-(4-(difluoromethylene)piperidin-1-yl)-4-((2-hydroxyethyl)sulfonamido)benzamide]	≥ 6.70	5.07
≥ 7.30	≥ 6.70	5.28	N#Cc1ccc(NC(=O)c2ccc(NS(=O)(=O)CCO)cc2N2CCC3(CC2)CC3)c2cc3n(c12)CCC(F)(F)C3 [Example 379]		

Continued, compound first:

Compound	pIC50 [1]	pIC50 [2]	pIC50 [3]	pIC50 ([2]; Homo sapiens, HT-29, 144 h)	pIC50 ([3]; Homo sapiens, A2780, 144 h)
CC1(C)Cn2c(cc3c(NC(=O)c4ccc(NS(=O)(=O)CCO)cc4N4CCC5(CC4)CC5)cccc32)CO1 [Example 371, N-(3,3-dimethyl-3,4-dihydro-1H-[1,4]oxazino[4,3-a]indol-9-yl)-4-(2-hydroxyethylsulfonamido)-2-(6-azaspiro[2.5]octan-6-yl)benzamide]	≥ 7.30			≥ 6.70	< 5.00
N#Cc1ccc(NC(=O)c2ccc(NS(=O)(=O)CCO)cc2N2CCC(=C(F)F)CC2)c2cc3n(c12)CCC(F)(F)C3 [Example 378]	6.30 to 7.30	≥ 6.70	5.11		
COc1ccc(NC(=O)c2ccc(NS(=O)(=O)CCO)cc2N2CCC3(CC2)CC3)c2cc3n(c12)CC(C)(C)OC3 [Example 455, 4-((2-hydroxyethyl)sulfonamido)-N-(6-methoxy-3,3-dimethyl-3,4-dihydro-1H-[1,4]oxazinyl[4,3-a]indol-9-yl)-2-(6-azaspiro[2.5]oct-6-yl)benzamide]	6.30 to 7.30			≥ 6.70	< 5.00
COc1ccc(NC(=O)c2ccc(NS(=O)(=O)CCO)cc2N2CCC(=C(F)F)CC2)c2cc3n(c12)CC(C)(C)OC3 [Example 465, 2-(4-(difluoromethylene)piperidin-1-yl)-4-((2-hydroxyethyl)sulfonamido)-N-(6-methoxy-3,3-dimethyl-3,4-dihydro-1H-[1,4]oxazinyl[4,3-a]indol-9-yl)benzamide]	6.30 to 7.30	≥ 6.70	< 5.00		
